What was measured:
Grass (mixed types) = experiment: Field trial of formulation components, kill rate 1 year after application (TABLE 2, Jun. 14, 2005, near Warren Pa.); format: in vivo; conditions: no herbicide; single component at % weight: Ethylene Glycol 0.07, 5 Mol Borax 0.044, Boric Acid 0.037, Barlox 12 0.305
Description: (§1) On Jun. 14, 2005, further trials were conducted near Warren Pa., USA to evaluate the contribution of certain formulation components to herbicide performance from the Jun. 2, 2004 Buffered Amine Oxide system. The same field trial methods were used. The control was distilled water.
(§2) The two herbicides which were tested were 2,4-D and Glyphosate. They were used in concentrations of 50:1 and 200:1. The vegetations tested were raspberry and grass. The components of the various elements employed in the buffered amine oxide formula are expressed in weight percent of the total buffered amine oxide formula. […] The first three components were tested at 200:1 strength with the Ethylene Glycol used alone, the Ethylene Glycol used in combination with 5 Mol Borax and Ethylene Glycol, 5 Mol Borax and Boric Acid used in combination. None of these killed the weeds.
(§3) Where a “0” appears in a block in TABLE 2, this means there were no kills. Where a block is blank, this means that no measurement was taken.

Raspberry = experiment: as above; format: in vivo; conditions: no herbicide; single component at % weight: Ethylene Glycol 0.07, 5 Mol Borax 0.044, Boric Acid 0.037, Barlox 12 0.305
Description: as §1, §2, §3

Row | SMILES | Kill Rate % 1 Year After Application, Grass (Grass (mixed types)) [%] | Kill Rate % 1 Year After Application, Raspberry (Raspberry) [%]
1 | O.O.O.O.O.[Na+].[Na+].[O-]B1OB2OB([O-])OB(O1)O2 [5 Mol Borax] | 0 | 0
2 | OB(O)O [Boric Acid] | 0 | 0
3 | OCCO [Ethylene Glycol] | 0 | 0

Reference: patent US10383336B2, “Solutions employing herbicides and buffered amine oxides to kill weeds and related methods” (priority 2015, dated 2019)
